# In ChEMBL document CHEMBL1201862, “PubChem BioAssay data set” (2004):
# pIC50: −log10 of the molar value. Activity calls are given as the source filed them.
# Tests used:
# [1] = target: Muscarinic acetylcholine receptor M5 (Homo sapiens, UniProt P08912); assay: M5 muscarinic receptor antagonist potency, dose response, cell-based, CHO-K1 hM5, Fluo-4 calcium flux, ACh EC80 (AID 743110); type: functional
# [2] = MITF Measured in Cell-Based System Using Plate Reader - 2084-01_Inhibitor_Dose_DryPowder_Activity_Set7.; type: functional
# [3] = A375 melanoma cell viability loss, dose response, counter-screen for MITF inhibitor project, CellTiter-Glo luminescence, dry powder, set 4 (AID 624364); type: functional, cell-based; details: A-375;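 also: A375 melanoma cells are MITF independent so this is a counter screen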
# [4] = MALME3 melanoma cell viability reduction, dose response, orthogonal assay for MITF inhibitor project, CellTiter-Glo luminescence, dry powder, set 5 (AID 651584); type: functional, cell-based; details: MALME-3
# [5] = cytotoxicity in primary human melanocytes, dose response, cytotoxicity control, cell-based, plate reader, dry powder (AID 651920); type: functional
# [6] = SK-MEL-5 parental line viability, dose response, MITF inhibitor project, cell-based, CellTiter-Glo, dry powder, set 6 (AID 624429); type: functional
# [7] = SK-MEL-5 parental cell viability reduction, dose response, orthogonal assay for MITF inhibitor project, CellTiter-Glo luminescence, dry powder, set 8 (AID 651586); type: functional, cell-based
# [8] = MITF Orthogonal Assay: MALME3 CTG Assay Measured in Cell-Based System Using Plate Reader - 2084-04_Inhibitor_Dose_DryPowder_Activity_Set6.; type: functional; details: MALME-3
# [9] = A375 melanoma cell cytotoxicity, dose response, counter-screen for MITF inhibitor project, CellTiter-Glo luminescence, dry powder, set 7 (AID 624490); type: functional, cell-based; details: A-375
# [10] = TRPM1 promoter luciferase reporter signal decrease, dose response, MITF inhibitor project, cell-based, SK-MEL-5, dry powder, set 9 (AID 651588); type: functional
# [11] = MITF Measured in Cell-Based System Using Plate Reader - 2084-01_Inhibitor_Dose_DryPowder_Activity_Set6.; type: functional
# [12] = MITF Orthogonal Assay: SK-MEL-5 CTG Assay Measured in Cell-Based System Using Plate Reader - 2084-02_Inhibitor_Dose_DryPowder_Activity_Set5.; type: functional
# [13] = A549 cell cytotoxicity, dose response, cytotoxicity control, CellTiter-Glo luminescence, dry powder, set 3 (AID 743146); type: functional, cell-based
# [14] = HEK293 cell cytotoxicity, dose response, cytotoxicity control, ATP luminescence, dry powder, Set6 (AID 743142); type: functional, cell-based
# [15] = target: Potassium channel subfamily K member 3 (Rattus norvegicus, UniProt O54912); assay: SAR analysis for the identification of selective inhibitors of the two-pore domain potassium channel TASK1(KCNK3):Automated Electrophysiology.; type: functional
# Chain of Potassium channel subfamily K member 3 (Rattus norvegicus, UniProt O54912) (O54912 whole entry, the tested form may be a part): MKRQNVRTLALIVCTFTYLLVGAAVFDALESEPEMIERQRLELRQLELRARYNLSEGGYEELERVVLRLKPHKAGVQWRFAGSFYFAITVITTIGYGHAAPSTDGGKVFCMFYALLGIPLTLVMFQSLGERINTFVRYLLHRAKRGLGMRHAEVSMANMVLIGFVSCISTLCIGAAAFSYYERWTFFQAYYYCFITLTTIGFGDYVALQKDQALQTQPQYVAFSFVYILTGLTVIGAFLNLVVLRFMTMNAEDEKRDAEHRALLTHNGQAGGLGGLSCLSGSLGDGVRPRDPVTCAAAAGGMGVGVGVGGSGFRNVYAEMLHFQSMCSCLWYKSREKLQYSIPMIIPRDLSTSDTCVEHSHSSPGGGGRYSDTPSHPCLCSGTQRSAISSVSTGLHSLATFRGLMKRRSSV
# [16] = target: T1, Potassium channel subfamily K member 9 (Homo sapiens, UniProt Q9NPC2); assay: TASK3 (KCNK9) channel inhibitors, thallium flux, SAR follow-up, selectivity assay for TASK1 inhibitor project, cell-based, FluxOR thallium flux, concentration-response (AID 652211); type: functional;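 also: potency is for inhibitors of the channel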
# T1 sequence (Q9NPC2 whole entry): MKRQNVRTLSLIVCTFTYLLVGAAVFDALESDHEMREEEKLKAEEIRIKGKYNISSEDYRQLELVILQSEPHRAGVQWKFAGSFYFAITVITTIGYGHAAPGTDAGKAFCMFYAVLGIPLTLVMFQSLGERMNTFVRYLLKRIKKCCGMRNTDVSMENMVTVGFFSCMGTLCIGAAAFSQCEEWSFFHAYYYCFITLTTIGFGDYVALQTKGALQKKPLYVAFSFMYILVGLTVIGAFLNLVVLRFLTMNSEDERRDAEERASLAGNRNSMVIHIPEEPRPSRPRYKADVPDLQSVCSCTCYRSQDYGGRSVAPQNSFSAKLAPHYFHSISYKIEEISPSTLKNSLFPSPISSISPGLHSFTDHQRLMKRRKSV
# [17] = target: Potassium channel subfamily K member 3 (Homo sapiens, UniProt O14649); assay: TASK1 (KCNK3) potassium channel inhibitors, SAR follow-up, CHO cells, FluxOR thallium flux (AID 652212); type: functional
# Chain of Potassium channel subfamily K member 3 (Homo sapiens, UniProt O14649) (O14649 whole entry): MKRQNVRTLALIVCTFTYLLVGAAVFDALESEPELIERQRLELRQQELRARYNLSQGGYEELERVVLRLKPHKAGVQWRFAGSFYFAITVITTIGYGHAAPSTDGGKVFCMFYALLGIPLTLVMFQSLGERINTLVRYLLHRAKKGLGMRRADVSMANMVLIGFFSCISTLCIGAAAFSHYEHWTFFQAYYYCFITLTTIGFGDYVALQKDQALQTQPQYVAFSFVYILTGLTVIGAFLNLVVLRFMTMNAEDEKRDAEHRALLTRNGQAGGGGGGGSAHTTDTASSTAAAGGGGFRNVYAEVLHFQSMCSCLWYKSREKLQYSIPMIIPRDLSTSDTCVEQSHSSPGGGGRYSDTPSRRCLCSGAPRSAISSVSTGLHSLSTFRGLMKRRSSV
# [18] = target: T1, Potassium channel subfamily K member 9; assay: KCNK9 (TASK3) current inhibition by patch clamp, SAR follow-up, selectivity assay for TASK1 (KCNK3) inhibitor project, cell-based, automated electrophysiology (AID 652210); type: functional
# [19] = target: Metabotropic glutamate receptor 5 (Rattus norvegicus, UniProt P31424); assay: Identification of a glycine sulfonamide based non-MPEP site positive allosteric potentiator (PAM) of mGlu5 (calcium_assay).; type: functional
# Chain of Metabotropic glutamate receptor 5 (P31424 whole entry): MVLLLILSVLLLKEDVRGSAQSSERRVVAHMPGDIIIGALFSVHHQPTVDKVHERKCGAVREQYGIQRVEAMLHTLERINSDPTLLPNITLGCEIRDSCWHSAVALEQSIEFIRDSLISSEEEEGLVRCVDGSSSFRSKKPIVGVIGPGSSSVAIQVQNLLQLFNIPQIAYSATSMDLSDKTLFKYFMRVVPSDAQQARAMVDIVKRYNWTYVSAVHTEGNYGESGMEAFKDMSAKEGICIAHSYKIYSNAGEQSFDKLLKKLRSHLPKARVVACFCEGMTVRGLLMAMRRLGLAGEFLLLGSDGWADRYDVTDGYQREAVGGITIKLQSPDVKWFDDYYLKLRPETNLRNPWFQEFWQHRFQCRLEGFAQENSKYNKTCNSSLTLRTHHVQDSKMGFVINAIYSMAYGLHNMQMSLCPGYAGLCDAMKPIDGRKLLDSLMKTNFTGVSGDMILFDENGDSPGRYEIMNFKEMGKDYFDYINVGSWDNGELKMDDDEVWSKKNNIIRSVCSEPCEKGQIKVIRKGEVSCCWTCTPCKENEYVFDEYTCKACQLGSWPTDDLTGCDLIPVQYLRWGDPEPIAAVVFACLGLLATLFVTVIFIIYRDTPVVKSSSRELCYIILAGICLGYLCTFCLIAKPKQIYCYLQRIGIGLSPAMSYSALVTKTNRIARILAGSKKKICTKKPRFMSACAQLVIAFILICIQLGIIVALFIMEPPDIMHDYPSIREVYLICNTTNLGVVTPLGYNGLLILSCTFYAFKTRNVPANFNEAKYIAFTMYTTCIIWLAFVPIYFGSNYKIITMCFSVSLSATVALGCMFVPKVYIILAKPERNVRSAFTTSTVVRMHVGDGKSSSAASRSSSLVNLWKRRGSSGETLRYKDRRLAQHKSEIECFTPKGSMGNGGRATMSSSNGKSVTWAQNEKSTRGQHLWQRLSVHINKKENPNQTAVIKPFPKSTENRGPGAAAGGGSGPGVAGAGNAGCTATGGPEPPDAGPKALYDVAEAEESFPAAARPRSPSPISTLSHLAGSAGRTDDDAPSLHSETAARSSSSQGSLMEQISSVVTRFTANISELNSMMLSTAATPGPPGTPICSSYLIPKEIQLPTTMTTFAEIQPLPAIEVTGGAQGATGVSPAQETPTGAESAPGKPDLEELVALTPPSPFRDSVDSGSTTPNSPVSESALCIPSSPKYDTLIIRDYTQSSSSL
# [20] = target: Metabotropic glutamate receptor 3 (Rattus norvegicus, UniProt P31422); assay: mGlu3 NAM potency via calcium readout, dose response, mGlu3 NAM project, TREx293 cells, Galpha15, calcium flux (AID 651840); type: functional
# Chain of Metabotropic glutamate receptor 3 (P31422 whole entry): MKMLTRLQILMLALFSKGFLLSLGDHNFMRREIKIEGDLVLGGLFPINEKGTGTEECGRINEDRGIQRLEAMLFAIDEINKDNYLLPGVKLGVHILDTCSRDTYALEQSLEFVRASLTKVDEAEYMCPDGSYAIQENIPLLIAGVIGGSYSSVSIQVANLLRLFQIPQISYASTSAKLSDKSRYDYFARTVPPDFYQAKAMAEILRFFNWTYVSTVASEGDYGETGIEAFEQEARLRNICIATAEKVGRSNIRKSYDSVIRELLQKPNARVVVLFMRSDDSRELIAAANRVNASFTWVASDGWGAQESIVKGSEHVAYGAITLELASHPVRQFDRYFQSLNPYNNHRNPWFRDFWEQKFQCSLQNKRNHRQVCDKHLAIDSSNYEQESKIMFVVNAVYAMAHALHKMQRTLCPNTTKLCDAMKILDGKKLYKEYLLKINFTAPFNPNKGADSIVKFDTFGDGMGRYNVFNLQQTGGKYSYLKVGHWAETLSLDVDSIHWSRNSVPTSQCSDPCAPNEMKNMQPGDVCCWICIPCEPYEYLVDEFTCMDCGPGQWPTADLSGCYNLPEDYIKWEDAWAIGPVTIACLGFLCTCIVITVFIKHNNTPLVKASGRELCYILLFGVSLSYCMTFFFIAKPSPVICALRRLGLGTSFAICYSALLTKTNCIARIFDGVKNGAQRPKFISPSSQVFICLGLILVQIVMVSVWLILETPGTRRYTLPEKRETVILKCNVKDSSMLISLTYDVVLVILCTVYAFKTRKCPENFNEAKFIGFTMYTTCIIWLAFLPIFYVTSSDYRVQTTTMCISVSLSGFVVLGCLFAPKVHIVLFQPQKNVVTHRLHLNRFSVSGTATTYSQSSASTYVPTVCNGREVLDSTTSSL
# [21] = A Cell-Based Confirmatory Screen for Compounds that Inhibit VEEV, TC-83 (8).; type: functional
# [22] = target: T2, Trace amine-associated receptor 1 (Homo sapiens, UniProt Q96RJ0); assay: Counterscreen for antagonists of the human trace amine associated receptor 1 (hTAAR1): Fluorescence-based cell-based high throughput dose response assay to identify TAAR1 Agonists.; type: functional
# T2 sequence (Q96RJ0 whole entry): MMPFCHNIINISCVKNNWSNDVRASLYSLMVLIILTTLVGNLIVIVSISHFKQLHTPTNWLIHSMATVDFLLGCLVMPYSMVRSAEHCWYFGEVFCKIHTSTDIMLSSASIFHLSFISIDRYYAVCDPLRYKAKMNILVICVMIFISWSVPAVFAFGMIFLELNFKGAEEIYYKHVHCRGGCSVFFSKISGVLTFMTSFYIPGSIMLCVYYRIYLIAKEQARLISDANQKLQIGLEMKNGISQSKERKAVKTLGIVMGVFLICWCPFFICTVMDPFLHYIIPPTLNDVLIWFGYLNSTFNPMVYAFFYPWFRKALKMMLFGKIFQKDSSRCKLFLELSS
# [23] = Counterscreen for […] of the human trace amine associated receptor 1 (TAAR1): Fluorescence-based cell-based high throughput dose response assay to identify nonselective Ga16 agonists.; type: functional
# [24] = target: T2, Trace amine-associated receptor 1; assay: Fluorescence-based cell-based high throughput dose response assay to identify antagonists of the human trace amine associated receptor 1 (TAAR1).; type: functional
# [25] = Counterscreen for antagonists of the human trace amine associated receptor 1 (hTAAR1): Fluorescence-based cell-based high throughput dose response assay to identify nonselective Ga16 antagonists.; type: functional
# [26] = cells; details: A549
# [27] = target: SUMO-activating enzyme (Homo sapiens, UniProt Q9UBT2); assay: SUMOylation inhibitor hit validation, confirmation, SUMOylation inhibitor project, biochemical, AlphaScreen (AID 2018); type: functional
# Chain of SUMO-activating enzyme (Q9UBE0 whole entry): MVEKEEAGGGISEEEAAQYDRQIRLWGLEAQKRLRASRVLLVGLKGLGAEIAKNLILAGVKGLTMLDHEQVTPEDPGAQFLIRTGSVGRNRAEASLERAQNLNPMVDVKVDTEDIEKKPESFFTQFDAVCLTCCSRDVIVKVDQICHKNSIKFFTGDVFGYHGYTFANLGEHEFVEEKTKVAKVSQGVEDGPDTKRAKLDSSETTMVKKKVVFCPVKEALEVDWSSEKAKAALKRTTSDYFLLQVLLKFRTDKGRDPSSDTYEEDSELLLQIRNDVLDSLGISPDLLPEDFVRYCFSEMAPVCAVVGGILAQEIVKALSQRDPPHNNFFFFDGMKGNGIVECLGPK
# Chain of SUMO-activating enzyme (Q9UBT2 whole entry): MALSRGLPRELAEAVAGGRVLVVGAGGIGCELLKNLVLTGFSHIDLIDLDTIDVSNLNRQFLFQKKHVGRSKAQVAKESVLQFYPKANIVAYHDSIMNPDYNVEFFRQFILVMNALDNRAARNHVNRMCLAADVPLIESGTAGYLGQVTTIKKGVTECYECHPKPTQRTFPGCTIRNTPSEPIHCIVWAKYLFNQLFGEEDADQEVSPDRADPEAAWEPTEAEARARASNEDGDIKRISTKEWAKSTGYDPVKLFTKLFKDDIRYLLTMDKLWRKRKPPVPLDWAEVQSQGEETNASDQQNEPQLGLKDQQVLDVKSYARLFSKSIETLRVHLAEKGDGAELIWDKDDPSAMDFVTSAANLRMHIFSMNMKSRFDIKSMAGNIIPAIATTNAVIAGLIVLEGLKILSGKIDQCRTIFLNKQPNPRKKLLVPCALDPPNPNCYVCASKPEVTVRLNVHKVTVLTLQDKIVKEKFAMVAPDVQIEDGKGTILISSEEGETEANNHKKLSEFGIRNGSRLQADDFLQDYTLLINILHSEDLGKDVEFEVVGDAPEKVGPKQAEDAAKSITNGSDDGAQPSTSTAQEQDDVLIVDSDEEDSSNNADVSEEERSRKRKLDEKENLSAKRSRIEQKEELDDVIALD
# Chain of Muscarinic acetylcholine receptor M5 (P08912 whole entry): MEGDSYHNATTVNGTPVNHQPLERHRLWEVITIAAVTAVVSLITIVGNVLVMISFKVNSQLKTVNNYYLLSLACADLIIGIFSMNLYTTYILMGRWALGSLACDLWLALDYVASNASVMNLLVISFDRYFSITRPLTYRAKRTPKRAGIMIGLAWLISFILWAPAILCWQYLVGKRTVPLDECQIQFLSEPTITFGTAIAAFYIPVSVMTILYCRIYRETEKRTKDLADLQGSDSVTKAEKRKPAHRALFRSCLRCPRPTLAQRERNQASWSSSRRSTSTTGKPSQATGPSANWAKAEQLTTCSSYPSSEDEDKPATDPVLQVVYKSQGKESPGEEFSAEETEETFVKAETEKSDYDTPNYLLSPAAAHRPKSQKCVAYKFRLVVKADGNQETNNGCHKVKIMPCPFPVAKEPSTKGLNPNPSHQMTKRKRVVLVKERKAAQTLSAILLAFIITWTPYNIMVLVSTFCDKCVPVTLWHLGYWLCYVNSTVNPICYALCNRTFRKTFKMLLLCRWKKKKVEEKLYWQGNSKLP
compound,measurement,setting,value
COC(=O)c1cccc(OCc2cc(C(=O)N(C)C(C)c3ccccn3)no2)c1 (configuration not stated),IC50,[1],11.1 µM (active)
O=C1C=C(NS(=O)(=O)c2ccc(Br)cc2)C(=O)c2ccccc21,AC50,[2],7.45 µM (active)
same,AC50,[3],> 70 µM (inactive)
same,AC50,[4],24.4 µM (active)
same,AC50,[5],14.5 µM (active)
same,AC50,[6],11.2 µM (active)
same,AC50,[7],11.8 µM (active)
same,AC50,[8],24.4 µM (active)
same,AC50,[9],> 70 µM (inactive)
same,AC50,[10],18.8 µM (active)
same,AC50,[11],6.37 µM (active)
same,AC50,[12],13.1 µM (active)
Cc1ccc(C(=O)NCCC(=O)N[C@@H]2CCCc3ccccc32)cc1,AC50,[13],> 52 µM (inactive)
same,AC50,[14],6.22 µM (active)
CCOc1ccccc1NC(=O)c1cccc(NC(=O)c2ccccc2)c1,IC50,[15],0.06 µM (active)
same,IC50,[16],1.43 µM (active)
same,IC50,[17],0.121 µM (active)
same,IC50,[18],2.14 µM (active)
CC(C(=O)Nc1ccncc1)N(c1ccccc1Cl)S(C)(=O)=O (configuration not stated),EC50,[19],> 30 µM (inactive)
COc1ccc(C#Cc2ccc(C(=O)N3CCCC(=O)C3)cc2)cc1,pIC50,[20],5.57
CCN1CCN(C(c2nc3ncc([N+](=O)[O-])cc3c(=O)n2-c2ccccc2)C(c2nc3ncc([N+](=O)[O-])cc3c(=O)n2-c2ccccc2)N2CCN(CC)CC2)CC1 (configuration not stated),IC50,[21],6.57 µM (active)
CCCC(=O)Nc1ccc(-c2csc(N/N=C\c3ccncc3)n2)cc1,EC50,[22],> 29.9 µM (inactive)
same,EC50,[23],> 29.9 µM (inactive)
same,IC50,[24],9.3 µM (active)
same,IC50,[25],> 29.9 µM (inactive)
Cn1cccc1/C=N/NC(=O)c1sc2cc(Cl)ccc2c1Cl,AC50,[26],43.7 µM (active)
same,IC50,[27],> 100 µM (inactive)
